Measured values: US10221163B2 (priority 2015, dated 2019)
Like-named read-outs stand apart in the source and are kept apart here.

What was measured:
[1] = tested on: Pseudomonas aeruginosa efflux− (MB9799), IMP-1; format: cell-based; conditions: concentration restoring susceptibility to imipenem at 2 μg/mL in the presence of a class A, C, D serine β-lactamase inhibitor closely related to relebactam
Outline: (§1)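 Microbroth MIC tests in PAO1-background strains with fixed imipenem and/or ceftazidime, usually at the CLSI breakpoint, plus fixed class A/C β-lactamase inhibitor against AmpC. MBL inhibitor titrated; concentration restoring susceptibility recorded and compared as fold difference between efflux+ MB9798 and efflux− MB9799.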

[2] = tested on: Serratia marcescens expressing IMP-1 (CL5741); format: cell-based; conditions: with imipenem 1 μg/ml; 95% inhibition of bacterial growth
Outline: (§2)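 Clinical isolates (E. coli NDM-1, S. marcescens IMP-1, K. pneumoniae VIM-1) were diluted 1:100 from saline suspension into 1.1×CAMHB and exposed to test compound with imipenem at 1 μg/ml. Plates were incubated at 35° C for 22 hours to 24 hours, and growth was read by absorbance.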

[3] = tested on: Escherichia coli expressing NDM-1 (CLB30005, CLB30016); format: cell-based; conditions: with imipenem 1 μg/ml; 95% inhibition of bacterial growth
Outline: as §2

[4] = tested on: Klebsiella pneumoniae expressing VIM-1 (IHMA599644); format: cell-based; conditions: with imipenem 1 μg/ml; 95% inhibition of bacterial growth
Outline: as §2

VIM-1 = VIM-1 (Pseudomonas aeruginosa (strain ATCC 15692 / DSM 22644 / CIP 104116 / JCM 14847 / LMG 12228 / 1C / PRS 101 / PAO1), UniProt A0A0F7KYQ8); assay: biochemical; conditions: CCF2-FA substrate, 30 pM enzyme, 2 hours at 25° C.
Outline: (§3)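 Class B activity is measured in the presence of compound by fluorescence with CCF2-FA after a 2-hour incubation at 25° C. IC50 is taken from a 4-parameter fit of semi-logarithmic dose-response data.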

IMP-1 = IMP-1 (Serratia marcescens, UniProt P52699); assay: biochemical; format: biochemical; conditions: fluorescence assay, CCF2-FA substrate, 2 pM enzyme, 2 hours at 25° C.; read-out: IMP-1 IC50
Sequence of IMP-1 (P52699 whole entry, looked up, species assumed): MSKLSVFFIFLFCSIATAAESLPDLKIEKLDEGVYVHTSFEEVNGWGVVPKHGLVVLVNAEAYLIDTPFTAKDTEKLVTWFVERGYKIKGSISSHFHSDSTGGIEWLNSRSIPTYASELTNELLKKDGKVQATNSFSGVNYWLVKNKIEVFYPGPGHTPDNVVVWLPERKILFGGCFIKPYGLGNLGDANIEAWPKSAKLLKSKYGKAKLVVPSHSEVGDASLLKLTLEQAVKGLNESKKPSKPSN
Outline: as §3

NDM-1 = NDM-1 (Klebsiella pneumoniae, UniProt C7C422); assay: biochemical; format: biochemical; conditions: fluorescence assay, CCF2-FA substrate, 1 pM enzyme, 2 hours at 25° C.; read-out: NDM-1 IC50
Sequence of NDM-1 (C7C422 whole entry, looked up, species assumed): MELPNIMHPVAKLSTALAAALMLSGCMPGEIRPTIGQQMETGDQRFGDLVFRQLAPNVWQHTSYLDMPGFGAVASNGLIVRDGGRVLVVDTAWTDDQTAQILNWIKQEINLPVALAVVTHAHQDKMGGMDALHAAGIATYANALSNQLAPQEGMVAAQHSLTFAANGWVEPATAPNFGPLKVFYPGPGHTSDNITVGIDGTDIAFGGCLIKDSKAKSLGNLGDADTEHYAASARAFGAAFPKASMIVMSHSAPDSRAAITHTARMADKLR
Outline: as §3

[5] = tested on: Pseudomonas aeruginosa efflux+ (MB9798), IMP-1; format: cell-based; conditions: concentration restoring susceptibility to imipenem at 2 μg/mL in the presence of a class A, C, D serine β-lactamase inhibitor closely related to relebactam
Outline: as §1

[6] = tested on: Pseudomonas aeruginosa MB9798 vs MB9799; conditions: ratio MITC95 PA_9798/MITC95 PA_9799
Outline: as §1

[7] = fluorescence assay, read-out: VIM-1 IC50

Compound: CNC(=O)CNS(=O)(=O)c1ccc(-c2cccc3sc(N)nc23)c(-c2nnn[nH]2)c1S(N)(=O)=O [Example 23, N^2-{[4-(2-amino-1,3-benzothiazol-4-yl)-2-sulfamoyl-3-(1H-tetrazol-5-yl)phenyl]sulfonyl}-N-methylglycinamide]
- P. aeruginosa expressing IMP-1, efflux − (MB9799) MITC95 [1]: 3.125 µM
- Serratia marcescens expressing IMP-1 (CL5741) MITC95 [2]: 6.25 µM
- Escherichia coli expressing NDM-1 (CLB30016) MITC95 [3]: 25 µM
- Klebsiella pneumoniae expressing VIM-1 (IHMA599644) MITC95 [4]: 12.5 µM
- IC50 (VIM-1; VIM-1 IC50, fluorescence assay): 0.224 nM
- IC50 (IMP-1): 0.294 nM
- IC50 (NDM-1): 0.0511 nM
- P. aeruginosa expressing IMP-1, efflux + (MB9798) MITC95 [5]: 3.125 µM
- Efflux ratio [6]: 1.00

Compound: COCCNS(=O)(=O)c1ccc(-c2cccc3sc(N)nc23)c(-c2nnn[nH]2)c1S(N)(=O)=O [Example 24, 4-(2-amino-1,3-benzothiazol-4-yl)-N^1-(2-methoxyethyl)-3-(1H-tetrazol-5-yl)benzene-1,2-disulfonamide]
- P. aeruginosa expressing IMP-1, efflux − (MB9799) MITC95 [1]: 3.125 µM
- Serratia marcescens expressing IMP-1 (CL5741) MITC95 [2]: 3.125 µM
- Escherichia coli expressing NDM-1 (CLB30016) MITC95 [3]: 25 µM
- Klebsiella pneumoniae expressing VIM-1 (IHMA599644) MITC95 [4]: 12.5 µM
- IC50 (VIM-1; [7]): 0.205 nM
- IC50 (IMP-1): 0.235 nM
- IC50 (NDM-1): 0.0732 nM
- P. aeruginosa expressing IMP-1, efflux + (MB9798) MITC95 [5]: 12.5 µM
- Efflux ratio [6]: 4.00

Compound: Nc1nc2c(-c3ccc(S(=O)(=O)N4CCC(CO)CC4)c(S(N)(=O)=O)c3-c3nnn[nH]3)cccc2s1 [Example 25, 3-(2-amino-1,3-benzothiazol-4-yl)-6-{[4-(hydroxymethyl)piperidin-1-yl]sulfonyl}-2-(1H-tetrazol-5-yl)benzenesulfonamide]
- P. aeruginosa expressing IMP-1, efflux − (MB9799) MITC95 [1]: 3.125 µM
- Serratia marcescens expressing IMP-1 (CL5741) MITC95 [2]: 6.25 µM
- Escherichia coli expressing NDM-1 (CLB30016) MITC95 [3]: 25 µM
- Klebsiella pneumoniae expressing VIM-1 (IHMA599644) MITC95 [4]: 25 µM
- IC50 (VIM-1; [7]): 4.52 nM
- IC50 (IMP-1): 2.24 nM
- IC50 (NDM-1): 3.02 nM
- P. aeruginosa expressing IMP-1, efflux + (MB9798) MITC95 [5]: 50 µM
- Efflux ratio [6]: 16.00

Compound: CN(C)C1CCN(S(=O)(=O)c2ccc(-c3cccc4sc(N)nc34)c(-c3nnn[nH]3)c2S(N)(=O)=O)CC1 [Example 26, 3-(2-amino-1,3-benzothiazol-4-yl)-6-{[4-(dimethylamino)piperidin-1-yl]sulfonyl}-2-(1H-tetrazol-5-yl)benzenesulfonamide]
- P. aeruginosa expressing IMP-1, efflux − (MB9799) MITC95 [1]: 3.125 µM
- Serratia marcescens expressing IMP-1 (CL5741) MITC95 [2]: 3.125 µM
- Escherichia coli expressing NDM-1 (CLB30016) MITC95 [3]: 12.5 µM
- Klebsiella pneumoniae expressing VIM-1 (IHMA599644) MITC95 [4]: 12.5 µM
- IC50 (VIM-1; [7]): 1.66 nM
- IC50 (IMP-1): 1.15 nM
- IC50 (NDM-1): 0.974 nM
- P. aeruginosa expressing IMP-1, efflux + (MB9798) MITC95 [5]: 6.25 µM
- Efflux ratio [6]: 2.00

Compound: CN1CCN(S(=O)(=O)c2ccc(-c3cccc4sc(N)nc34)c(-c3nnn[nH]3)c2S(N)(=O)=O)CC1 [Example 27, 3-(2-amino-1,3-benzothiazol-4-yl)-6-[(4-methylpiperazin-1-yl)sulfonyl]-2-(1H-tetrazol-5-yl)benzenesulfonamide]
- P. aeruginosa expressing IMP-1, efflux − (MB9799) MITC95 [1]: 6.25 µM
- Serratia marcescens expressing IMP-1 (CL5741) MITC95 [2]: 6.25 µM
- Escherichia coli expressing NDM-1 (CLB30016) MITC95 [3]: 12.5 µM
- Klebsiella pneumoniae expressing VIM-1 (IHMA599644) MITC95 [4]: 25 µM
- IC50 (VIM-1; [7]): 1.92 nM
- IC50 (IMP-1): 1.59 nM
- IC50 (NDM-1): 0.825 nM
- P. aeruginosa expressing IMP-1, efflux + (MB9798) MITC95 [5]: 12.5 µM
- Efflux ratio [6]: 2.00

Compound: Nc1nc2c(-c3ccc(S(=O)(=O)N4CCNC(=O)C4)c(S(N)(=O)=O)c3-c3nnn[nH]3)cccc2s1 [Example 28, 3-(2-amino-1,3-benzothiazol-4-yl)-6-[(3-oxopiperazin-1-yl)sulfonyl]-2-(1H-tetrazol-5-yl)benzenesulfonamide]
- P. aeruginosa expressing IMP-1, efflux − (MB9799) MITC95 [1]: 3.125 µM
- Serratia marcescens expressing IMP-1 (CL5741) MITC95 [2]: 6.25 µM
- Escherichia coli expressing NDM-1 (CLB30016) MITC95 [3]: 25 µM
- Klebsiella pneumoniae expressing VIM-1 (IHMA599644) MITC95 [4]: 12.5 µM
- IC50 (VIM-1; [7]): 0.726 nM
- IC50 (IMP-1): 0.646 nM
- IC50 (NDM-1): 0.646 nM
- P. aeruginosa expressing IMP-1, efflux + (MB9798) MITC95 [5]: 12.5 µM
- Efflux ratio [6]: 4.00

Compound: Nc1nc2c(-c3ccc(S(=O)(=O)N4CCOCC4)c(S(N)(=O)=O)c3-c3nnn[nH]3)cccc2s1 [Example 29, 3-(2-amino-1,3-benzothiazol-4-yl)-6-(morpholin-4-ylsulfonyl)-2-(1H-tetrazol-5-yl)benzenesulfonamide]
- P. aeruginosa expressing IMP-1, efflux − (MB9799) MITC95 [1]: 3.125 µM
- Serratia marcescens expressing IMP-1 (CL5741) MITC95 [2]: 6.25 µM
- Escherichia coli expressing NDM-1 (CLB30016) MITC95 [3]: 25 µM
- Klebsiella pneumoniae expressing VIM-1 (IHMA599644) MITC95 [4]: 25 µM
- IC50 (VIM-1; VIM-1 IC50, fluorescence assay): 3.06 nM
- IC50 (IMP-1): 2.08 nM
- IC50 (NDM-1): 1.35 nM
- P. aeruginosa expressing IMP-1, efflux + (MB9798) MITC95 [5]: 50 µM
- Efflux ratio [6]: 16.00

Compound: Nc1nc2c(-c3ccc(S(=O)(=O)NCCC4CNC4)c(S(N)(=O)=O)c3-c3nnn[nH]3)cccc2s1 [Example 30, 4-(2-amino-1,3-benzothiazol-4-yl)-N1-(2-azetidin-3-ylethyl)-3-(1H-tetrazol-5-yl)benzene-1,2-disulfonamide]
- P. aeruginosa expressing IMP-1, efflux − (MB9799) MITC95 [1]: 1.563 µM
- Serratia marcescens expressing IMP-1 (CL5741) MITC95 [2]: 3.125 µM
- Escherichia coli expressing NDM-1 (CLB30016) MITC95 [3]: 6.25 µM
- Klebsiella pneumoniae expressing VIM-1 (IHMA599644) MITC95 [4]: 6.25 µM
- IC50 (VIM-1; VIM-1 IC50, fluorescence assay): 0.308 nM
- IC50 (IMP-1): 0.369 nM
- IC50 (NDM-1): 0.0686 nM
- P. aeruginosa expressing IMP-1, efflux + (MB9798) MITC95 [5]: 1.563 µM
- Efflux ratio [6]: 1.00

Compound: CNCCNS(=O)(=O)c1ccc(-c2cccc3sc(N)nc23)c(-c2nnn[nH]2)c1S(N)(=O)=O [Example 31, 4-(2-amino-1,3-benzothiazol-4-yl)-N^1-[2-(methylamino)ethyl]-3-(1H-tetrazol-5-yl)benzene-1,2-disulfonamide]
- P. aeruginosa expressing IMP-1, efflux − (MB9799) MITC95 [1]: 1.563 µM
- Serratia marcescens expressing IMP-1 (CL5741) MITC95 [2]: 2.344 µM
- Escherichia coli expressing NDM-1 (CLB30016) MITC95 [3]: 9.375 µM
- Klebsiella pneumoniae expressing VIM-1 (IHMA599644) MITC95 [4]: 6.25 µM
- IC50 (VIM-1; [7]): 8.18 nM
- IC50 (IMP-1): 2.02 nM
- IC50 (NDM-1): 2.59 nM
- P. aeruginosa expressing IMP-1, efflux + (MB9798) MITC95 [5]: 2.344 µM
- Efflux ratio [6]: 1.50

Compound: Nc1nc2c(-c3ccc(S(=O)(=O)NC4CCNCC4)c(S(N)(=O)=O)c3-c3nnn[nH]3)cccc2s1 [Example 32, 4-(2-amino-1,3-benzothiazol-4-yl)-N1-piperidin-4-yl-3-(1H-tetrazol-5-yl)benzene-1,2-disulfonamide]
- P. aeruginosa expressing IMP-1, efflux − (MB9799) MITC95 [1]: 1.563 µM
- Serratia marcescens expressing IMP-1 (CL5741) MITC95 [2]: 1.563 µM
- Escherichia coli expressing NDM-1 (CLB30016) MITC95 [3]: 6.25 µM
- Klebsiella pneumoniae expressing VIM-1 (IHMA599644) MITC95 [4]: 3.125 µM
- IC50 (VIM-1; VIM-1 IC50, fluorescence assay): 0.296 nM
- IC50 (IMP-1): 0.34 nM
- IC50 (NDM-1): 0.069 nM
- P. aeruginosa expressing IMP-1, efflux + (MB9798) MITC95 [5]: 0.7813 µM
- Efflux ratio [6]: 0.50

Compound: COc1ccnc(CNS(=O)(=O)c2ccc(-c3cccc4sc(N)nc34)c(-c3nnn[nH]3)c2S(N)(=O)=O)n1 [Example 34, 4-(2-amino-1,3-benzothiazol-4-yl)-N1-[(4-methoxypyrimidin-2-yl)methyl]-3-(1H-tetrazol-5-yl)benzene-1,2-disulfonamide]
- P. aeruginosa expressing IMP-1, efflux − (MB9799) MITC95 [1]: 6.25 µM
- Serratia marcescens expressing IMP-1 (CL5741) MITC95 [2]: 6.25 µM
- Escherichia coli expressing NDM-1 (CLB30016) MITC95 [3]: 25 µM
- Klebsiella pneumoniae expressing VIM-1 (IHMA599644) MITC95 [4]: 50 µM
- IC50 (VIM-1; [7]): 0.329 nM
- IC50 (IMP-1): 0.429 nM
- IC50 (NDM-1): 0.0816 nM
- P. aeruginosa expressing IMP-1, efflux + (MB9798) MITC95 [5]: 25 µM
- Efflux ratio [6]: 4.00

Compound: Nc1nc2c(-c3ccc(S(=O)(=O)NC4CCc5nccn5C4)c(S(N)(=O)=O)c3-c3nnn[nH]3)cccc2s1 (stereo not drawn) [Example 35, 4-(2-amino-1,3-benzothiazol-4-yl)-N1-(5,6,7,8-tetrahydroimidazo[1,2-a]pyridin-6-yl)-3-(1H-tetrazol-5-yl)benzene-1,2-disulfonamide]
- P. aeruginosa expressing IMP-1, efflux − (MB9799) MITC95 [1]: 3.125 µM
- Serratia marcescens expressing IMP-1 (CL5741) MITC95 [2]: 3.125 µM
- Escherichia coli expressing NDM-1 (CLB30016) MITC95 [3]: 12.5 µM
- Klebsiella pneumoniae expressing VIM-1 (IHMA599644) MITC95 [4]: 12.5 µM
- IC50 (VIM-1; [7]): 0.256 nM
- IC50 (IMP-1): 0.349 nM
- IC50 (NDM-1): 0.0508 nM
- P. aeruginosa expressing IMP-1, efflux + (MB9798) MITC95 [5]: 6.25 µM
- Efflux ratio [6]: 2.00
